These compounds were tested against recombinant human LRRK2 (catalytic domain only [amino acids 970-2527], GST-tagged) (Homo sapiens (Human), UniProt Q5S007) (assay: LRRK2 Enzymatic Assay). Conditions: LRRKtide substrate, [32P]-ATP.
recombinant human LRRK2 (catalytic domain only [amino acids 970-2527], GST-tagged), sequence (Q5S007 970-2527): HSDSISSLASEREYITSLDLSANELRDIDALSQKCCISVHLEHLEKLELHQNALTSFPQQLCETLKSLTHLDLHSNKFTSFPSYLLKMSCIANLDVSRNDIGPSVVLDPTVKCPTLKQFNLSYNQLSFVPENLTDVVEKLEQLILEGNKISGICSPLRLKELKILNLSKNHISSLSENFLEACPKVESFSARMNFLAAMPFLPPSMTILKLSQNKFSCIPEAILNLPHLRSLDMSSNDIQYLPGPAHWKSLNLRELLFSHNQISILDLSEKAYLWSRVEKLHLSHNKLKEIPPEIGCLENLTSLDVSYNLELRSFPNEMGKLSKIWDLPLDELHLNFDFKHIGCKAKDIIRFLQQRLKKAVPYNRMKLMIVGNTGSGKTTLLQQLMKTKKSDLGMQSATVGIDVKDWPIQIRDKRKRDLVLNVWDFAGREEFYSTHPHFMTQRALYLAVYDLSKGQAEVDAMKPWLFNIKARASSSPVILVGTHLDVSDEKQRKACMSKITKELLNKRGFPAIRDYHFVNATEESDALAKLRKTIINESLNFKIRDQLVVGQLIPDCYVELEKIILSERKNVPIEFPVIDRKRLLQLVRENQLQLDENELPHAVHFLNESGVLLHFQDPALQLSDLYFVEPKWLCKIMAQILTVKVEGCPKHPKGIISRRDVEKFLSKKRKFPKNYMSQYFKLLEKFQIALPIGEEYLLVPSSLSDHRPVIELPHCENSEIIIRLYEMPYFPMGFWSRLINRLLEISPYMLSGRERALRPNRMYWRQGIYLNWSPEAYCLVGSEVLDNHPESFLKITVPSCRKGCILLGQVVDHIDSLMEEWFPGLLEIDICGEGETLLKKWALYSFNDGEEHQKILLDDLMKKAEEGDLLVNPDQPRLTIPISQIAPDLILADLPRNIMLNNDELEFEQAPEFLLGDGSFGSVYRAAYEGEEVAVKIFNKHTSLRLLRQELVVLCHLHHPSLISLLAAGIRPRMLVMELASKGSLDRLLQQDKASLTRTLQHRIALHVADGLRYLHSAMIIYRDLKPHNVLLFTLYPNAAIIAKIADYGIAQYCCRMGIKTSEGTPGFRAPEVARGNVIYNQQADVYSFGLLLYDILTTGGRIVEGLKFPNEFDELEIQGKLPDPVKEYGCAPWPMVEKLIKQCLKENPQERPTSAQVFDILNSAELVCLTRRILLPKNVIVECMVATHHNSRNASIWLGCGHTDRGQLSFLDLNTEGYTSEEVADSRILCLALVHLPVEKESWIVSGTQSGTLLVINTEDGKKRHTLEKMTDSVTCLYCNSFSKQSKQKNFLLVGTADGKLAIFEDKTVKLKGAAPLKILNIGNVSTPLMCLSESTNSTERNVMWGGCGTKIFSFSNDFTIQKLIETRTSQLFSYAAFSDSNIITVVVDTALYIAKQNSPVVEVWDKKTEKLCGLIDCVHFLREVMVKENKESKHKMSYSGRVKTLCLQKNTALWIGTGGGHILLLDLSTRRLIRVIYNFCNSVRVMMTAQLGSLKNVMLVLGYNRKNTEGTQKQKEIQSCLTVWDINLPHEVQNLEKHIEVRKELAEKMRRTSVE
Format: biochemical
Summary of the method: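 Radiometric P81 filter-binding read-out of [32P]-ATP transfer to LRRKtide (20 μM) by 30 nM GST-LRRK2 970-2527, 2 h at room temperature after 20 min compound preincubation (10 μM–0.5 nM, 1% DMSO). IC50 derived from % remaining activity versus DMSO.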
For `Fc1cnc(Nc2ccc(N3CCOCC3)cc2)nc1OCC1CCC(OC(F)(F)F)CC1` (single isomer, unassigned) [Example 281, 5-fluoro-N-(4-morpholinophenyl)-4-((4-(trifluoromethoxy)cyclohexyl)methoxy)pyrimidin-2-amine], the IC50 was > 400 nM. Work on `Cc1nn(C(C)(C)C#N)cc1Nc1ncc(Cl)c(OCC2CCC(C(F)(F)F)CC2)n1` (stereo not shown) [Example 157, 2-(4-((5-chloro-4-((4-(trifluoromethyl)cyclohexyl)methoxy)pyrimidin-2-yl)amino)-3-methyl-1H-pyrazol-1-yl)-2-methylpropanenitrile] yielded an IC50 of 50 to 200 nM. For `O[C@H]1CC[C@H](COc2nc(Nc3cnn(C4CCOCC4)c3C3CC3)ncc2F)CC1` [Example 236, (1R,4R)-4-(((2-((5-cyclopropyl-1-(tetrahydro-2H-pyran-4-yl)-1H-pyrazol-4-yl)amino)-5-fluoropyrimidin-4-yl)oxy)methyl)cyclohexan-1-ol], the IC50 was < 50 nM. With `C[C@@H]1CN(c2ccc(Nc3ncc(F)c(OC[C@@H]4CCC[C@@H](O)C4)n3)cc2)C[C@H](C)O1` [Example 249, (1R,3R)-3-(((2-((4-((2S,6R)-2,6-dimethylmorpholino)phenyl)amino)-5-fluoropyrimidin-4-yl)oxy)methyl)cyclohexan-1-ol] the IC50 was < 50 nM. For `Cc1c(Nc2ncc(Cl)c(OCC3CC(F)(F)C3)n2)cnn1C1CC(C#N)C1` (stereo not shown) [Example 159, 3-(4-((5-chloro-4-((3,3-difluorocyclobutyl)methoxy)pyrimidin-2-yl)amino)-5-methyl-1H-pyrazol-1-yl)cyclobutane-1-carbonitrile], the IC50 was < 50 nM. `CC(C)(O)[C@H]1CC[C@H](COc2ccnc(Nc3ccc(N4CCOCC4)cc3)n2)CC1` [Example 136, 2-((1R,4R)-4-(((2-((4-morpholinophenyl)amino)pyrimidin-4-yl)oxy)methyl)cyclohexyl)propan-2-ol] showed an IC50 of 50 to 200 nM. `CNC[C@H]1CC[C@H](COc2ccnc(Nc3ccc(N4CCOCC4)cc3)n2)CC1` [Example 48, 4-(((1R,4R)-4-((methylamino)methyl)cyclohexyl)methoxy)-N-(4-morpholinophenyl)py-rimidin-2-amine] gave an IC50 of 50 to 200 nM. In the case of `CC(=O)N1CCC(COc2nc(Nc3ccc(N4C[C@@H](C)O[C@@H](C)C4)cc3)ncc2F)C(F)C1` (single isomer, unassigned) [Example 174], the IC50 is reported as 200 to 400 nM. In the case of `Fc1cnc(Nc2ccc(N3CCOCC3)cc2)nc1OCC1CCC(OC(F)(F)F)CC1` (single isomer, unassigned) [Example 282, 5-fluoro-N-(4-morpholinophenyl)-4-((4-(trifluoromethoxy)cyclohexyl)methoxy)pyrimidin-2-amine], the IC50 is reported as > 400 nM. With `CC(=O)N[C@H]1CC[C@H](COc2nc(Nc3cnn(C(F)F)c3C)ncc2F)CC1` [Example 200, N-((1R,4R)-4-(((2-((1-(difluoromethyl)-5-methyl-1H-pyrazol-4-yl)amino)-5-fluoropyrimidin-4-yl)oxy)methyl)cyclo-hexyl)acetamide] the IC50 was < 50 nM. In the case of `COc1cnc(Nc2ccc(N3CCOCC3)cc2)nc1OCC1CCCCC1` [Example 152, 4-(cyclohexylmethoxy)-5-methoxy-N-(4-morpholinophenyl)pyrimidin-2-amine], the IC50 is reported as < 50 nM. `Cc1nn(C(C)(C)C#N)cc1Nc1ncc(Cl)c(OCC2COC2)n1` [Example 158, 2-(4-((5-chloro-4-(oxetan-3-ylmethoxy)pyrimidin-2-yl)amino)-3-methyl-1H-pyrazol-1-yl)-2-methylpropanenitrile] gave an IC50 of 50 to 200 nM. `C[C@@H]1CN(c2ccc(Nc3ncc(F)c(OC[C@H]4CC[C@H](OC(F)F)CC4)n3)cc2)C[C@H](C)O1` [Example 285, 4-(((1R,4R)-4-(difluoromethoxy)cyclohexyl)methoxy)-N-(4-((2S,6R)-2,6-dimethylmorpholino)phenyl)-5-fluoropyrimidin-2-amine] showed an IC50 of 200 to 400 nM. In the case of `CNC1(COc2nc(Nc3ccc(N4CCOCC4)cc3)ncc2Cl)CC1` [Example 54, 5-chloro-4-((1-(methylamino)cyclo-propyl)methoxy)-N-(4-morpholinophenyl)py-rimidin-2-amine], the IC50 is reported as 200 to 400 nM. `C[C@@H]1CN(c2ccc(Nc3nccc(OCC4CCC(O)CC4)n3)cc2)C[C@H](C)O1` (stereo partly drawn) [Example 118, 4-(((2-((4-((2S,6R)-2,6-dimethylmorpholino)phenyl)amino)pyrimidin-4-yl)oxy)methyl)cyclohexan-1-ol] gave an IC50 of 50 to 200 nM. `Cc1nn(C(C)(C)C#N)cc1Nc1ncc(F)c(OCC2CC(C#N)C2)n1` (single isomer, unassigned) [Example 291, 3-(((2-((1-(2-cyanopropan-2-yl)-3-methyl-1H-pyrazol-4-yl)amino)-5-fluoropyrimidin-4-yl)oxy)methyl)cyclobutane-1-carbonitrile] was tested, and the IC50 was < 50 nM. `CN[C@H]1CC[C@H](COc2ccnc(Nc3ccc(N4CCOCC4)cc3)n2)CC1` [Example 31, 4-(((1R,4R)-4-(methylamino)cyclo-hexyl)methoxy)-N-(4-morpholinophenyl) pyrimidin-2-amine] was tested, and the IC50 was < 50 nM. With `CNC1CCCC(COc2ccnc(Nc3ccc(N4CCOCC4)cc3)n2)C1` (stereo not shown) [Example 47, 4-((3-(methylamino)cyclo-hexyl)methoxy)-N-(4-morpholinophenyl) pyrimidin-2-amine] the IC50 was 200 to 400 nM. In the case of `O=C(C(F)F)N1CCC(COc2nc(Nc3ccc(N4CCOCC4)cc3)ncc2Cl)CC1` [Example 109, 1-(4-(((5-chloro-2-((4-morpholino-phenyl)amino)pyrimidin-4-yl)oxy)methyl)piperidin-1-yl)-2,2-difluoro-ethan-1-one], the IC50 is reported as < 50 nM. With `Cc1c(Nc2ncc(Cl)c(OCC3(F)CCNCC3)n2)cnn1C1CC(C#N)C1` (stereo not shown) [Example 22, 3-(4-((5-chloro-4-((4-fluoropiperidin-4-yl)methoxy)pyrimidin-2-yl)amino)-5-methyl-1H-pyrazol-1-yl)cyclobutane-1-carbonitrile] the IC50 was < 50 nM. With `Cc1nc(Nc2ccc(N3CCOCC3)cc2)nc(OC[C@H]2CC[C@H](O)CC2)c1F` [Example 265, (1R,4R)-4-(((5-fluoro-6-methyl-2-((4-morpholinophenyl)amino)pyrimidin-4-yl)oxy)methyl)cyclohexan-1-ol] the IC50 was > 400 nM. With `CC1(O)CCC(COc2nc(Nc3ccc(N4CCOCC4)cc3)ncc2F)CC1` (stereo not shown) [Example 251, 4-(((5-fluoro-2-((4-morpholinophenyl)amino)pyrimidin-4-yl)oxy)methyl)-1-methylcyclohexan-1-ol] the IC50 was 50 to 200 nM. `Cc1nn(C(C)(C)C#N)cc1Nc1nccc(OCC2(F)CCNCC2)n1` [Example 19, 2-(4-((4-((4-fluoropiperidin-4-yl)methoxy)pyrimidin-2-yl)amino)-3-methyl-1H-pyrazol-1-yl)-2-methylpropanenitrile] showed an IC50 of 200 to 400 nM. With `CC(C)n1cc(Nc2ncc(F)c(OCC3CCNCC3(F)F)n2)cn1` (stereo not shown) [Example 164, 4-((3,3-difluoropiperidin-4-yl)methoxy)-5-fluoro-N-(1-isopropyl-1H-pyrazol-4-yl)pyrimidin-2-amine] the IC50 was < 50 nM. With `C[C@@H]1CN(c2ccc(Nc3nccc(OCC45CCC(O)(CC4)CC5)n3)cc2)C[C@H](C)O1` [Example 142, 4-(((2-((4-((2S,6R)-2,6-dimethylmorpholino)phenyl)amino)pyrimidin-4-yl)oxy)methyl)bicyclo[2.2.2]octan-1-ol] the IC50 was > 400 nM. `Cc1c(Nc2ncc(F)c(OC[C@H]3CC[C@H](O)CC3)n2)cnn1C(F)F` [Example 235, (1R,4R)-4-(((2-((1-(difluoromethyl)-5-methyl-1H-pyrazol-4-yl)amino)-5-fluoropyrimidin-4-yl)oxy)methyl)cyclohexan-1-ol] was tested, and the IC50 was 50 to 200 nM. With `C[C@@H]1CN(c2ccc(Nc3ncc(F)c(OCC4(F)CCN(C)CC4)n3)cc2)C[C@H](C)O1` [Example 65, N-(4-((2R,6S)-2,6-dimethylmorpholino)phenyl)-5-fluoro-4-((4-fluoro-1-methylpiperidin-4-yl)methoxy)pyrimidin-2-amine] the IC50 was 50 to 200 nM. `O[C@H]1CC[C@H](COc2nc(Nc3cnn(C4CCOCC4)c3)ncc2F)CC1` [Example 228, (1R,4R)-4-(((5-fluoro-2-((1-(tetrahydro-2H-pyran-4-yl)-1H-pyrazol-4-yl)amino)pyrimidin-4-yl)oxy)methyl)cyclohexan-1-ol] showed an IC50 of 200 to 400 nM. `CC(=O)N[C@H]1C[C@H](COc2nc(Nc3ccc(N4CCOCC4)cc3)ncc2F)C1` [Example 92, N-((1R,3R)-3-(((5-fluoro-2-((4-morpholinophenyl)amino)pyrimidin-4-yl)oxy)methyl)cyclo-butyl)acetamide] gave an IC50 of 200 to 400 nM. In the case of `CC(=O)N[C@H]1CC[C@@H](COc2ccnc(Nc3ccc(N4CCOCC4)cc3)n2)C1` [Example 89, N-((1S,3R)-3-(((2-((4-morpholinophenyl)amino)pyrimidin-4-yl)oxy)methyl)cyclo-pentyl)acetamide], the IC50 is reported as > 400 nM. `CC(C)OC1CCC(COc2nc(Nc3ccc(N4CCOCC4)cc3)ncc2F)CC1` (racemic) [Example 278, 5-fluoro-4-((4-isopropoxycyclohexyl)methoxy)-N-(4-morpholinophenyl)pyrimidin-2-amine] gave an IC50 of 50 to 200 nM. For `CC(=O)N[C@H]1CC[C@H](COc2ccnc(Nc3cn(C(C)(C)C#N)nc3C)n2)CC1` [Example 74, N-((1R,4R)-4-(((2-((1-(2-cyanopropan-2-yl)-3-methyl-1H-pyrazol-4-yl)amino)pyrimidin-4-yl)oxy)methyl)cyclo-hexyl)acetamide], the IC50 was 50 to 200 nM. In the case of `OC1(C(F)(F)F)CCC(COc2nc(Nc3ccc(N4CCOCC4)cc3)ncc2F)CC1` (stereo not shown) [Example 260, 4-(((5-fluoro-2-((4-morpholinophenyl)amino)pyrimidin-4-yl)oxy)methyl)-1-(trifluoromethyl)cyclohexan-1-ol], the IC50 is reported as 50 to 200 nM. `O[C@H]1CC[C@H](COc2nc(Nc3cnn(C4CC4)c3)ncc2F)CC1` [Example 220, (1R,4R)-4-(((2-((1-cyclopropyl-1H-pyrazol-4-yl)amino)-5-fluoropyrimidin-4-yl)oxy)methyl)cyclohexan-1-ol] showed an IC50 of 50 to 200 nM.

— US11578061B2, “Inhibitors of LRRK2 kinase” (Halia Therapeutics, Inc., priority 2021, dated 2023)
